Data published in ChEMBL document CHEMBL4627246, “Pyroglutamide-Based P2X7 Receptor Antagonists Targeting Inflammatory Bowel Disease” (J Med Chem, 2020).

Columns and labels:
Type in all cases: cell-based
[1] = tested on: A549; assay: Cytotoxicity against human A549/ATCC cells assessed as effect on cell growth at 10 uM incubated for 48 hrs by sulforhodamine B assay; conditions: a549, 48 h
[2] = tested on: HOP-62; assay: Cytotoxicity against human HOP62 cells assessed as effect on cell growth at 10 uM incubated for 48 hrs by sulforhodamine B assay; conditions: hop-62, 48 h
[3] = tested on: Hs-578T; assay: Cytotoxicity against human Hs 578T cells assessed as effect on cell growth at 10 uM incubated for 48 hrs by sulforhodamine B assay
[4] = tested on: HL-60(TB); assay: Cytotoxicity against human HL-60(TB) cells assessed as effect on cell growth at 10 uM incubated for 48 hrs by sulforhodamine B assay
[5] = tested on: SK-MEL-2; assay: Cytotoxicity against human SK-MEL-2 cells assessed as effect on cell growth at 10 uM incubated for 48 hrs by sulforhodamine B assay; conditions: sk-mel-2, 48 h
[6] = tested on: HCC 2998; assay: Cytotoxicity against human HCC2998 cells assessed as effect on cell growth at 10 uM incubated for 48 hrs by sulforhodamine B assay; conditions: hcc 2998, 48 h
[7] = tested on: HCT-116; assay: Cytotoxicity against human HCT116 cells assessed as effect on cell growth at 10 uM incubated for 48 hrs by sulforhodamine B assay; conditions: hct-116, 48 h
[8] = tested on: MOLT-4; assay: Cytotoxicity against human MOLT4 cells assessed as effect on cell growth at 10 uM incubated for 48 hrs by sulforhodamine B assay; conditions: molt-4, 48 h
[9] = tested on: NCI-H522; assay: Cytotoxicity against human NCI-H522 cells assessed as effect on cell growth at 10 uM incubated for 48 hrs by sulforhodamine B assay; conditions: nci-h522, 48 h
[10] = tested on: NCI-H226; assay: Cytotoxicity against human NCI-H226 cells assessed as effect on cell growth at 10 uM incubated for 48 hrs by sulforhodamine B assay; conditions: nci-h226, 48 h
[11] = tested on: HOP-92; assay: Cytotoxicity against human HOP92 cells assessed as effect on cell growth at 10 uM incubated for 48 hrs by sulforhodamine B assay; conditions: hop-92, 48 h
[12] = tested on: SF-539; assay: Cytotoxicity against human SF539 cells assessed as effect on cell growth at 10 uM incubated for 48 hrs by sulforhodamine B assay; conditions: sf-539, 48 h
[13] = tested on: SNB-75; assay: Cytotoxicity against human SNB75 cells assessed as effect on cell growth at 10 uM incubated for 48 hrs by sulforhodamine B assay; conditions: snb-75, 48 h
[14] = tested on: SR; assay: Cytotoxicity against human SR cells assessed as effect on cell growth at 10 uM incubated for 48 hrs by sulforhodamine B assay
[15] = tested on: M14; assay: Cytotoxicity against human M14 cells assessed as effect on cell growth at 10 uM incubated for 48 hrs by sulforhodamine B assay; conditions: m14, 48 h
[16] = tested on: UACC-62; assay: Cytotoxicity against human UACC62 cells assessed as effect on cell growth at 10 uM incubated for 48 hrs by sulforhodamine B assay; conditions: uacc-62, 48 h
[17] = tested on: SK-MEL-5; assay: Cytotoxicity against human SK-MEL-5 cells assessed as effect on cell growth at 10 uM incubated for 48 hrs by sulforhodamine B assay; conditions: sk-mel-5, 48 h
[18] = tested on: CCRF-CEM; assay: Cytotoxicity against human CCRF-CEM cells assessed as effect on cell growth at 10 uM incubated for 48 hrs by sulforhodamine B assay
[19] = tested on: OVCAR-3; assay: Cytotoxicity against human OVCAR3 cells assessed as effect on cell growth at 10 uM incubated for 48 hrs by sulforhodamine B assay; conditions: ovcar-3, 48 h
[20] = tested on: MDA-MB-435; assay: Cytotoxicity against human MDA-MB-435 cells assessed as effect on cell growth at 10 uM incubated for 48 hrs by sulforhodamine B assay; conditions: mda-mb-435, 48 h

Measured: Activity

CN(C)/C=C1\C[C@H]2C(=O)N(Cc3ccc(Cl)cc3Cl)C(N(C)C)N2C1=O (stereo not given in full)
Non-Toxic: all assays above

COc1ccc(N2C(=O)[C@@H]3C/C(=C\N(C)C)C(=O)N3C2N(C)C)cc1 (stereo not given in full)
Non-Toxic: all assays above

O=C(NCc1ccccc1)[C@@H]1CCC(=O)N1Cc1ccc(Cl)cc1Cl
Non-Toxic: all assays above

O=C1N[C@H](C(=O)NCc2ccc(Cl)cc2Cl)C/C1=N\O (stereo in doubt)
Non-Toxic: all assays above

CCCCCCN1C(=O)[C@@H]2CCC(=O)N2C1N(C)C (stereo not given in full)
Non-Toxic: all assays above

N#Cc1ccc(N2C(=O)CC[C@H]2C(=O)NCc2ccc(Cl)cc2Cl)cc1
Non-Toxic: all assays above

CN1C(=O)CC[C@H]1C(=O)NCc1cccc(C(F)(F)F)c1Cl [GSK1482160]
Non-Toxic: all assays above

COc1ccc(CN2C(=O)CC[C@H]2C(=O)NCCc2ccccc2)cc1
Non-Toxic: all assays above

O=C(NCC1CCCCC1)[C@@H]1CCC(=O)N1c1ccccc1
Non-Toxic: all assays above

CN(C)C(=O)[C@@H]1CCC(=O)N1
Non-Toxic: all assays above

O=C(NCc1ccc(Cl)cc1Cl)[C@@H]1CCC(=O)N1C(c1ccccc1)c1ccccc1
Non-Toxic: all assays above

O=C(NCc1ccccc1Cl)[C@@H]1CCC(=O)N1Cc1ccccc1
Non-Toxic: all assays above

O=C1N[C@H](C(=O)NCc2ccc(Cl)cc2Cl)C/C1=C\N1CCOCC1
Non-Toxic: all assays above

CN(C)/C=C1\C[C@H]2C(=O)N(Cc3ccccc3Cl)C(N(C)C)N2C1=O (stereo not given in full)
Non-Toxic: all assays above
